Measurements taken from ChEMBL document CHEMBL1154768 (J Med Chem, 2009).

Legend:
[1] = target: T1, Adenosine receptor A1 (Homo sapiens) (UniProt P30542); assay: Inhibition of [3H]CCPA binding to human recombinant adenosine A1 receptor expressed in CHO cells at 10 uM after 60 mins by liquid scintillation counting; type: cell-based
T1 sequence (whole entry): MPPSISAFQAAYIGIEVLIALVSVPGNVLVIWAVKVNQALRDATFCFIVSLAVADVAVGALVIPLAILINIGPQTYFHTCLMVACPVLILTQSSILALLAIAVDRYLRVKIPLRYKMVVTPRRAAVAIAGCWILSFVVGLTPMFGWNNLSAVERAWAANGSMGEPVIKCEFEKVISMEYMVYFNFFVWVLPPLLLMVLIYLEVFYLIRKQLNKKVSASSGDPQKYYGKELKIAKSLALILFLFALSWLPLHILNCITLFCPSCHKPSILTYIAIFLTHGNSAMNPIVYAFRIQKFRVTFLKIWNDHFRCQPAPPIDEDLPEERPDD

[2] = target: T2, Adenosine receptor A3 (Homo sapiens) (UniProt P0DMS8); assay: Agonist activity at human recombinant adenosine A3 receptor expressed in CHO cells assessed as inhibition of forskolin-stimulated cAMP production at 10 uM treated 45 mins before forskolin challenge measured after 15 mins by radioimmunoassay relative to NECA; type: functional, cell-based
T2 sequence (whole entry): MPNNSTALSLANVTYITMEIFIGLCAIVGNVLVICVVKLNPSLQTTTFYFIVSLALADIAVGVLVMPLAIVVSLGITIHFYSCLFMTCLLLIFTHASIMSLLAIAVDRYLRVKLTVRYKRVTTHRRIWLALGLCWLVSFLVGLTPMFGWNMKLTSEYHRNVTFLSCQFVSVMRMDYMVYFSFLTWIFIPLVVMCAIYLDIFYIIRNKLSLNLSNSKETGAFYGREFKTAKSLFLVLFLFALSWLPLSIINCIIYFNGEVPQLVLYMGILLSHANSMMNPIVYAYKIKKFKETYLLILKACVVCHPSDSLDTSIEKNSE

[3] = target: T3, Adenosine receptor A2a (Homo sapiens, UniProt P29274); assay: Inhibition of [3H]CGS21680 binding to human adenosine A2A receptor expressed in HEK293 cells at 10 uM after 60 mins by liquid scintillation counting; type: cell-based
[4] = target: T2, Adenosine receptor A3 (Homo sapiens); details: CHO, 10 uM
Description: Inhibition of [125I]AB-MECA binding to human recombinant adenosine A3 receptor expressed in CHO cells at 10 uM after 60 mins by liquid scintillation counting

[5] = target: T1, Adenosine receptor A1 (Homo sapiens); assay: Inhibition of [3H]NECA binding to human recombinant adenosine A1 receptor expressed in CHO cells at 10 uM after 60 mins by liquid scintillation counting; type: cell-based
[6] = target: T4, Adenosine receptor A3 (Homo sapiens, UniProt P0DMS8); assay: Displacement of [125I]AB-MECA from human recombinant adenosine A3 receptor expressed in CHO cells after 60 mins by gamma counting
T4 sequence (P0DMS8 whole entry): T2 sequence (whole entry)

[7] = target: T5, Adenosine receptor A1 (Homo sapiens, UniProt P30542); assay: Displacement of [3H]NECA from human recombinant adenosine A1 receptor expressed in CHO cells after 60 mins by liquid scintillation counting; type: cell-based
T5 sequence (P30542 whole entry): T1 sequence (whole entry)

[8] = target: T3, Adenosine receptor A2a; assay: Displacement of [3H]CGS21680 from human adenosine A2A receptor expressed in HEK293 cells after 60 mins by liquid scintillation counting; type: cell-based
[9] = species on record: Homo sapiens; assay: Selectivity for human recombinant adenosine A3 receptor over human recombinant adenosine A2A receptor
[10] = target: T6, Adenosine receptor A3 (Rattus norvegicus, UniProt P28647); assay: Binding affinity to rat adenosine A3 receptor expressed in CHO cells; type: cell-based
T6 sequence (P28647 whole entry): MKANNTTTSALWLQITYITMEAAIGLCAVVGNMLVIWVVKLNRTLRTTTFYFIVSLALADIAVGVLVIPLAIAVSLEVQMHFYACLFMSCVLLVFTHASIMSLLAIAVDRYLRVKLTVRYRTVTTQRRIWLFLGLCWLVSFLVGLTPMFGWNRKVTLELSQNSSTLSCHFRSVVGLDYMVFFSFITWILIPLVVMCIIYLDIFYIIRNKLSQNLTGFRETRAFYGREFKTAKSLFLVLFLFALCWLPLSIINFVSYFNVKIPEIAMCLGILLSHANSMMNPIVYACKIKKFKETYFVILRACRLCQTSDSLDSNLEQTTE

[11] = target: Adenosine receptors; A1 & A3 (Homo sapiens) (UniProt P30542+P0DMS8); assay: Selectivity for human recombinant adenosine A3 receptor over human recombinant adenosine A1 receptor
[12] = target: T5, Adenosine receptor A1; assay: Displacement of [3H]CCPA from human recombinant adenosine A1 receptor expressed in CHO cells after 60 mins by liquid scintillation counting; type: cell-based
[13] = target: T4, Adenosine receptor A3; assay: Agonist activity at human recombinant adenosine A3 receptor expressed in CHO cells assessed as inhibition of forskolin-stimulated cAMP production treated 45 mins before forskolin challenge measured after 15 mins by radioimmunoassay relative to NECA; type: functional, cell-based

T3 sequence (P29274 whole entry): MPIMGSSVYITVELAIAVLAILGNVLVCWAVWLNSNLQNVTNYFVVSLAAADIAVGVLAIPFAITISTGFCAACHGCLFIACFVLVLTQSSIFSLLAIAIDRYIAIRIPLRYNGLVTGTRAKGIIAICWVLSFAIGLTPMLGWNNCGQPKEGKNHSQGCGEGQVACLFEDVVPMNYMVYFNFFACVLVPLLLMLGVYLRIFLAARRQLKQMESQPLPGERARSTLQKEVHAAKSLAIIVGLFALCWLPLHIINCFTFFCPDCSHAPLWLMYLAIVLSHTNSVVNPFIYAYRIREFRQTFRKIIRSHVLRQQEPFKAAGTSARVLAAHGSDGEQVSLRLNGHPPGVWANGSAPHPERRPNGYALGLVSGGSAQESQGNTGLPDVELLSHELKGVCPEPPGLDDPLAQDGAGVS

Structure (SMILES) | Efficacy [2] [%] | inhibition [3] [%] | inhibition [5] [%] | Ki [6] [nM] | Ki [8] [nM] | further results
CNC(=O)[C@]12C[C@H]1[C@@H](n1cnc3c(NCc4cccc(Cl)c4)nc(C#CCCC(=O)NCCN)nc31)[C@@H](O)[C@H]2O | 25.6 | 8 |  |  |  | inhibition [1]: 33%; inhibition [4]: 30%
CNC(=O)[C@]12C[C@@H]1[C@@H](n1cnc3c(NCc4cccc(Cl)c4)nc(C#CCCC(=O)OC)nc31)[C@H](O)[C@@H]2O | 90 | 43 | 41 | 5.5 |  | 
O[C@@H]1[C@H](O)[C@@H]2C[C@@H]2[C@H]1n1cnc2c(NCc3cccc(I)c3)nc(F)nc21 | 19 |  |  | 10.7 | 4000 | Ki [7]: 513 nM
CNC(=O)[C@]12C[C@@H]1[C@@H](n1cnc3c(NCc4cccc(Cl)c4)nc(C#CCCC(=O)NCCCCN)nc31)[C@H](O)[C@@H]2O | 102 |  | 30 | 2.1 | 766 | fold change (FC) [9]: > 5000; Ki [10]: 8.68 nM; fold change (FC) [11]: 360
CNC(=O)[C@]12C[C@@H]1[C@@H](n1cnc3c(NCc4cccc(I)c4)ncnc31)[C@H](O)[C@@H]2O | 100 |  |  | 2.4 | 6200 | Ki [12]: 700 nM
CNC(=O)[C@]12C[C@@H]1[C@@H](n1cnc3c(NCc4cccc(Cl)c4)nc(C#CCCCC(=O)OC)nc31)[C@H](O)[C@@H]2O |  | 49 |  |  |  | Ki [12]: 482 nM
CNC(=O)[C@]12C[C@@H]1[C@@H](n1cnc3c(NCc4cccc(Cl)c4)nc(C#CCCC(=O)NCCNCCN)nc31)[C@H](O)[C@@H]2O | 87.6 |  | 33 | 15.4 | 890 | 
CNC(=O)[C@]12C[C@@H]1[C@@H](n1cnc3c(NCc4cccc(Cl)c4)nc(C#CCCC(=O)O)nc31)[C@H](O)[C@@H]2O | 106 | 24 | 17 | 61.1 |  | 
CNC(=O)[C@]12C[C@@H]1[C@@H](n1cnc3c(NCc4cccc(Cl)c4)nc(C#CCCC(=O)NCCNC(=O)CCCC[C@H]4SC[C@H]5NC(=O)N[C@H]54)nc31)[C@H](O)[C@@H]2O | 84.5 | 51 | 1 | 36.4 |  | IC50 [13]: 2.5 nM
CNC(=O)[C@]12C[C@@H]1[C@@H](n1cnc3c(NCc4cccc(Cl)c4)nc(C#CCCC(=O)NCCN)nc31)[C@H](O)[C@@H]2O | 96.9 |  |  | 2.5 | 550 | Ki [7]: 2320 nM
CNC(=O)[C@]12C[C@@H]1[C@@H](n1cnc3c(NCc4cccc(Cl)c4)nc(C#CCCC(=O)NCCNC(=O)CCCCCNC(=O)CCCC[C@H]4SC[C@H]5NC(=O)N[C@H]54)nc31)[C@H](O)[C@@H]2O | 107 | 47 | 12 | 57.7 |  | fold change (FC) [9]: 66; fold change (FC) [11]: > 170
CNC(=O)[C@]12C[C@H]1[C@@H](n1cnc3c(NCc4cccc(Cl)c4)nc(C#CCCCC(=O)O)nc31)[C@@H](O)[C@H]2O |  | 9 |  |  |  | 
CNC(=O)C12C[C@@H]1[C@@H](n1cnc3c(NCc4cccc(Cl)c4)nc(C#CCCCC(=O)O)nc31)[C@H](O)[C@@H]2O (single isomer, unassigned) |  |  |  |  |  | Ki [10]: 66.5 nM
CNC(=O)[C@]12C[C@@H]1[C@@H](n1cnc3c(NCc4cccc(Cl)c4)nc(C#CCCCCC(=O)OC)nc31)[C@H](O)[C@@H]2O | 85 |  | 20 | 11.1 | 3540 | 
CNC(=O)[C@]12C[C@@H]1[C@@H](n1cnc3c(NCc4cccc(Cl)c4)nc(Cl)nc31)[C@H](O)[C@@H]2O |  |  |  |  | 2300 | Ki [12]: 260 nM
O[C@@H]1[C@H](O)[C@@H]2C[C@@H]2[C@H]1n1cnc2c(NCc3cccc(I)c3)ncnc21 | 80.8 |  |  |  |  | Ki [7]: 839 nM
CNC(=O)[C@]12C[C@@H]1[C@@H](n1cnc3c(NCc4cccc(Cl)c4)nc(C#CCCCC(=O)NCCN)nc31)[C@H](O)[C@@H]2O |  | 81 |  | 2.17 |  | Ki [12]: 454 nM
CNC(=O)[C@]12C[C@@H]1[C@@H](n1cnc3c(NCc4cccc(Cl)c4)nc(C#CCCC(=O)NCCCN)nc31)[C@H](O)[C@@H]2O | 97.9 |  | 31 | 3.1 | 979 | 
O[C@@H]1[C@H](O)[C@@H]2C[C@@H]2[C@H]1n1cnc2c(NC3CCCC3)nc(Cl)nc21 | 95.1 |  |  | 120 | 1640 | Ki [7]: 109 nM
CNC(=O)[C@]12C[C@H]1[C@@H](n1cnc3c(NCc4cccc(Cl)c4)nc(C#CCCCCC(=O)NCCN)nc31)[C@@H](O)[C@H]2O | 52 | 5 |  | 4630 |  | inhibition [1]: 36%
CNC(=O)[C@]12C[C@@H]1[C@@H](n1cnc3c(NCc4cccc(Cl)c4)nc(C#CCCCCC(=O)O)nc31)[C@H](O)[C@@H]2O | 74.4 | 38 | 11 | 12.4 |  | 
O[C@@H]1[C@H](O)[C@@H]2C[C@@H]2[C@H]1n1cnc2c(NCc3cccc(I)c3)nc(Cl)nc21 | 44 |  |  |  |  | EC50 [13]: 12 nM
O[C@@H]1[C@H](O)[C@@H]2C[C@@H]2[C@H]1n1cnc2c(NCc3cccc(Cl)c3)ncnc21 | 58.3 |  |  | 4.9 | 4520 | Ki [7]: 1600 nM; Ki [10]: 20.3 nM
CNC(=O)[C@]12C[C@@H]1[C@@H](n1cnc3c(NC4CCCC4)nc(Cl)nc31)[C@H](O)[C@@H]2O | 101 |  |  |  |  | 
NCCNC(=O)CCC#Cc1nc(NCc2cccc(Cl)c2)c2ncn([C@H]3[C@H](O)[C@H](O)[C@@H]4C[C@@H]43)c2n1 | 0.9 | 35 | 15 | 404 |  | fold change (FC) [9]: > 20; fold change (FC) [11]: > 20
CNC(=O)[C@]12C[C@@H]1[C@@H](n1cnc3c(NCc4cccc(Cl)c4)nc(C#CCCCCC(=O)NCCN)nc31)[C@H](O)[C@@H]2O | 100 |  | 47 | 3.4 | 277 | 
